We go through one substance from article PMC7300217, “Surfactin Like Broad Spectrum Antimicrobial Lipopeptide Co-produced With Sublancin From Bacillus subtilis Strain A52: Dual Reservoir of Bioactives” (Frontiers in Microbiology, 2020).

Data set [1] has as its system A. brassicicola MTCC 2102. As to the kind of experiment: MIC against phytopathogenic fungi, 96-well microtiter plate assay. In kind it is cell-based, Alternaria brassicicola. The following applies: 1 × 10^5 spores/ml in PDB, 25°C, OD600 after 48 h, triplicate. As to the method:
(§1) The antimicrobial activity was tested by well diffusion assay as mentioned earlier ([Singh et al., 2014]). Strain A52 was grown for 24 h in 500 ml of nutrient broth (NB, Hi-media, India) using 1000 ml flask and subsequently cells were removed by centrifugation (10,000 rpm for 15 min at 4°C). Supernatant was filtered through 0.22 μm filter (Millipore, United States) to obtain cell-free fermented broth (CFB) that was used for antimicrobial assay (50 μl) against various indicator strains and the activity was measured as diameter of inhibition zone. […]
(§2) The minimum inhibitory concentration (MIC) of HPLC purified peptides was evaluated by using microtiter plate dilution assay. […] OD was measured at 600 nm after 24 and 48 h for bacteria and yeast, respectively, using ELISA microplate reader (Thermo, United States). MIC against phytopathogenic fungi was determined using 96-well microtiter plate assay ([Kaur et al., 2016]). […] The microplates were incubated at 25°C and readings were recorded at 600 nm after 48 h. […]

For data set [2], the system named is A. brassicicola MTCC 2102 spores. Nature of the data set: Effect on fungal spores, phase contrast microscopy. The format is cell-based, Alternaria brassicicola. The protocol:
(§3) The effect of peptide on cell membrane was determined by scanning electron microscopy (SEM) and transmission electron microscopy (TEM) after treatment with AMPs. For this, test strains S. aureus MTCC 1430 and C. albicans MTCC 183 were cultured to mid-log phase in respective media. The cells were harvested by centrifugation at 10,000 × g for 10 min, washed thrice with 1X PBS, and re-suspended to adjust an OD600 of 0.2. […] Following the incubation, cells were processed for SEM and TEM as described ([Raje et al., 2006]). The specimens were completely dried using freeze drier, coated with gold, and visualized under a scanning electron microscope (ZEISS, Germany). For TEM (JEOL, JEM 2100, United States), cells were treated with peptide, washed, and subjected to negative stain 0.1% sodium phosphotungstate (Sigma, United States) for visualization. Effect of A52 lipopeptide on fungal spore was observed through a phase contrast microscope (Nickon H600L, Japan).

The next data set concerns M. luteus MTCC 106. As to the kind of experiment: MIC, microtiter plate dilution assay. In kind it is cell-based, Micrococcus luteus. The following applies: 5 × 10^5 CFU/ml, 37°C, OD600 after 24 h, triplicate. The protocol:
as §1, §2

A further data set relates to B. coagulans MTCC 492. Nature of the data set: MIC, microtiter plate dilution assay. In kind it is cell-based. The following applies: 5 × 10^5 CFU/ml, 37°C, OD600 after 24 h, triplicate. As to the method:
(§4) The minimum inhibitory concentration (MIC) of HPLC purified peptides was evaluated by using microtiter plate dilution assay. The peptide concentration was estimated using BCA protein assay (Thermo Fisher Scientific, United States) method as described by manufacturer. Actively growing test strains (5 × 10^5 CFU/ml) were inoculated in a 96-well plate with different concentrations of the peptides and plates were incubated for 24–48 h at 37°C (final volume in each well is 200 μl). OD was measured at 600 nm after 24 and 48 h for bacteria and yeast, respectively, using ELISA microplate reader (Thermo, United States). MIC against phytopathogenic fungi was determined using 96-well microtiter plate assay ([Kaur et al., 2016]). In 96-well microplates, 100 μl of fungal spore suspension (1 × 10^5 spores/ml) prepared in potato dextrose broth (PDB, Hi-media, India) was mixed with100 μl of fresh PDB containing different concentrations of lipopeptide. Control well contained 100 μl of fungal spore suspension and 100 μl of only medium. The microplates were incubated at 25°C and readings were recorded at 600 nm after 48 h. The lowest concentration showing no growth was considered as MIC. Each test was done in triplicate and optical density (OD600) of peptide treated wells were compared with uninoculated wells (blank medium control).

The test system of another data set is B. cereus MTCC 430. Nature of the data set: MIC, microtiter plate dilution assay. The format is cell-based. The following applies: 5 × 10^5 CFU/ml, 37°C, OD600 after 24 h, triplicate. The protocol: as §4
Data set [3] deals with S. aureus MTCC 1430. As to the kind of experiment: In-gel activity assay (Tricine-SDS-PAGE). The format is cell-based, Staphylococcus aureus. The following applies: 16% Tricine-SDS-PAGE, ∼10^6 cells/ml. As to the method:
Purified antimicrobial peptides were analyzed on TLC plates (Silica gel 60 F254, Merck, Germany) and used to determine the purity and antimicrobial activity of the compound by bioautographic assay ([Zheng et al., 2005]). About 50–60 μl of the peptide solution (100 μg/ml concentration) was loaded onto individual TLC silica gel plates in duplicates and were developed using a solvent system containing chloroform: […]: water (65:12:4 v/v). Subsequently, each TLC plate was dried, cut into two vertical parts, and one part of the TLC was used for direct detection of antimicrobial activity by overlaying on NA plate containing indicator strain (S. aureus MTCC 1430, ∼10^6 cells/ml). After allowing for 1 h of diffusion at 4°C, the TLC strip was removed and plates were incubated for 24 h at 37°C. The other part of TLC strip (5–10 μl of the peptide solution spot) was sprayed with ninhydrin and phosphomolybdic acid as a staining reagent to detect the presence of peptides and lipid moieties, respectively. Similarly, peptides were electrophoresed on 16% Tricine-SDS-PAGE and used for in-gel activity assay as described earlier ([Baindara et al., 2016]). S. aureus MTCC 1430 (∼10^6 cells/ml) was used as an indicator strain in assay.

Data set [4] has as its system S. aureus MTCC 1430. Nature of the data set: Transmission electron microscopy of treated cells. In kind it is cell-based, Staphylococcus aureus. The following applies: 2X and 5X MIC, 37°C overnight. As to the method:
as §3

A further data set has as its system C. albicans MTCC 183. Nature of the data set: Scanning electron microscopy of treated cells. In kind it is cell-based, Candida albicans. The following applies: 2X and 5X MIC, 37°C overnight. The protocol: as §3
The test system of the next data set is rabbit blood cells. As to the kind of experiment: Hemolysis assay. The format is cell-based, New Zealand white rabbit. The protocol: For hemolysis assay blood was collected from New Zealand white rabbit, centrifuged, washed three times, and resuspended in phosphate-buffered saline (PBS). Cells were counted using hemocytometer (adjusted to 2 × 10^8 cells/ml) and treated with different concentrations of peptides (between 10 and 200 μg/ml). They were incubated in a CO2 incubator for 24 h at 37°C and processed to observe release of hemoglobin as described earlier ([Singh et al., 2014]). PBS and 0.1% Triton X-100 were used as agents for 0 and 100% hemolysis, respectively.

As to “Glu^1-Leu/Ile^2-Leu^3-Val^4-Asp^5-Leu^6-Leu/Ile^7 and a β-OH hexadecane fatty acid chain (lariat or depsi) [Lipopeptide A52, cyclic surfactin-like lipopeptide, 7 amino acids and C16 β-hydroxy fatty acid, 1061.9 Da, from B. subtilis strain A52]”, in data set [1], the “MIC value, A. brassicicola MTCC 2102” value was 25 µg/mL. Also, the “lysis of fungal spores” value in data set [2] was “able to lyse the spores”. Besides, in the data set on M. luteus MTCC 106, the “MIC value, M. luteus MTCC 106” value is 1 µg/mL. Further, the “MIC value, B. coagulans MTCC 492” value against B. coagulans MTCC 492 was determined as 2 µg/mL. For the same substance, the “MIC value, B. cereus MTCC 430” value in the data set on B. cereus MTCC 430 was 2 µg/mL. Also, the “antimicrobial activity in in-gel assay” value in the data set on S. aureus MTCC 1430 [3] is listed as “No antimicrobial activity was detected”. Moreover, the “cell morphology in TEM images” value in the data set on S. aureus MTCC 1430 [4] was “wall rupturing and cellular lysis”. Further, in the data set with C. albicans MTCC 183, the “cell morphology in SEM images” value was “disintegrated outer cell membrane”. Further, the hemolytic activity result in the data set with rabbit blood cells is given as “demonstrated hemolytic activity”.
